Values joined by “and” are separate entries in the source; they are usually repeats but may differ in a detail not shown here. Equal values may be shown once. Toxic doses and inconclusive results are not listed.
System: P388 leukemia ip, CD2F1 mice, survival T/C
Assay: NCI In Vivo Anticancer Drug Screen. Data for tumor model P388 Leukemia (intraperitoneal) in CD2F1 (CDF1) mice
Conditions: endpoint: median survival time, higher = longer survival
Procedure, shortened: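 Mice carrying the transplanted tumor received test compound or vehicle. Survival was recorded in each group, and the value is the treated-group measurement divided by that of the vehicle-treated control group.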

[1] = dose: 50.0 mg/kg/injection, schedule: Q01DX005 (ip), vehicle: Klucel (hydroxypropylcellulose) (HPC)
[2] = dose: 100.0 mg/kg/injection, schedule: Q01DX005 (ip), vehicle: Klucel (hydroxypropylcellulose) (HPC)
[3] = dose: 50.0 mg/kg/injection, schedule: Q01DX009 (ip), vehicle: Klucel (hydroxypropylcellulose) (HPC)
[4] = dose: 100.0 mg/kg/injection, schedule: Q01DX009 (ip), vehicle: Klucel (hydroxypropylcellulose) (HPC)
[5] = dose: 200.0 mg/kg/injection, schedule: Q01DX005 (ip), vehicle: Klucel (hydroxypropylcellulose) (HPC)
[6] = dose: 100.0 mg/kg/injection, schedule: Q01DX005 (ip), vehicle: saline with Tween-80
[7] = dose: 12.5 mg/kg/injection, schedule: Q01DX005 (ip), vehicle: saline with Tween-80
[8] = dose: 25.0 mg/kg/injection, schedule: Q01DX005 (ip), vehicle: saline with Tween-80

For `O=C1NC(c2cccc3ccccc23)Nc2ccc(O)cc21` (configuration not stated), the T/C (dose: 8.75 mg/kg/injection, schedule: Q01DX005 (ip), vehicle: DMSO) was 102 % of control, the T/C (dose: 17.5 mg/kg/injection, schedule: Q01DX005 (ip), vehicle: DMSO) was 100 % of control and the T/C (dose: 35.0 mg/kg/injection, schedule: Q01DX005 (ip), vehicle: DMSO) was 102 % of control. The T/C (dose: 70.0 mg/kg/injection, schedule: Q01DX005 (ip), vehicle: DMSO) was 98 % of control and the T/C (dose: 140.0 mg/kg/injection, schedule: Q01DX005 (ip), vehicle: DMSO) was 100 % of control.
`[Cl][Sn][Cl].c1cnc2c(c1)ccc1cccnc12` was tested, and the T/C (dose: 100.0 mg/kg/injection, schedule: Q04DX003 (ip), vehicle: saline with Tween-80) was 97 % of control and the T/C (dose: 200.0 mg/kg/injection, schedule: Q04DX003 (ip), vehicle: saline with Tween-80) was 112 % of control.
For `CCCCCCCCCCCCCCN=Cc1c(O)c(O)c(C(C)C)c2cc(C)c(-c3c(C)cc4c(C(C)C)c(O)c(O)c(C=NCCCCCCCCCCCCCC)c4c3O)c(O)c12`, the T/C (dose: 12.5 mg/kg/injection, schedule: Q01DX005 (ip), vehicle: Klucel (hydroxypropylcellulose) (HPC)) was 98 % of control, the T/C (dose: 25.0 mg/kg/injection, schedule: Q01DX005 (ip), vehicle: Klucel (hydroxypropylcellulose) (HPC)) was 90 % of control and the T/C [1] was 98 % of control. The T/C [2] was 95 % of control.
`NC(N)=NS(=O)(=O)c1ccc(N=Nc2c(O)n(-c3ccccc3)n(-c3ccccc3)c2=O)cc1` was tested, and the T/C [3] was 88 % of control and the T/C [4] was 94 % of control.
For `Cc1[nH]nc2oc(=O)c3ccccc3c12`, the T/C [1] was 105 % of control, the T/C [2] was 102 % of control and the T/C [5] was 102 % of control.
In the case of `CCCCCCCCCCCC1=c2o[nH]c2=C(c2ccccn2)C(=O)C1=O`, the T/C (dose: 50.0 mg/kg/injection, schedule: Q01DX005 (ip), vehicle: saline with Tween-80) is reported as 94 % of control and the T/C [6] is reported as 86 % of control.
With `O=NN(CCCl)C(=O)Nc1cc(Cl)ccc1O` the T/C (dose: 50.0 mg/kg/injection, schedule: Q01DX009 (ip), vehicle: saline with Tween-80) was 150 % of control and the T/C (dose: 50.0 mg/kg/injection, schedule: Q04DX003 (ip), vehicle: saline with Tween-80) was 122 % of control.
With `CCCCCCCC(=O)Nc1cc2c3c(c1)CCCN3CCC2` the T/C (dose: 50.0 mg/kg/injection, schedule: Q01DX001 (ip), vehicle: saline with Tween-80) was 100 % of control, the T/C (dose: 100.0 mg/kg/injection, schedule: Q01DX001 (ip), vehicle: saline with Tween-80) was 95 % of control and the T/C (dose: 200.0 mg/kg/injection, schedule: Q01DX001 (ip), vehicle: saline with Tween-80) was 90 % of control.
`Nc1ccccc1C(=O)N/N=C/c1cccnc1` was tested, and the T/C [1] was 100 % of control, the T/C [2] was 98 % of control and the T/C [5] was 98 % of control.
With `COc1ccc(C2CC(=O)NC2=O)cc1OC` (configuration not stated) the T/C (dose: 60.0 mg/kg/injection, schedule: Q01DX005 (ip), vehicle: saline with Tween-80) was 96 % of control, the T/C (dose: 120.0 mg/kg/injection, schedule: Q01DX005 (ip), vehicle: saline with Tween-80) was 92 % of control and the T/C (dose: 240.0 mg/kg/injection, schedule: Q01DX005 (ip), vehicle: saline with Tween-80) was 97 % of control.
`CN(C)CCN(Cc1ccco1)c1ccccn1` was tested, and the T/C [7] was 92 % of control, the T/C (dose: 12.5 mg/kg/injection, schedule: Q01DX005 (ip), vehicle: saline) was 96 % of control and 98 % of control and the T/C [8] was 100 % of control. The T/C (dose: 25.0 mg/kg/injection, schedule: Q01DX005 (ip), vehicle: saline) was 96 % of control and 99 % of control and the T/C (dose: 50.0 mg/kg/injection, schedule: Q01DX005 (ip), vehicle: saline) was 102 % of control [middle of 4 runs].
In the case of `CN(C)/N=C1\C(=O)Nc2ccc(Br)cc21`, the T/C [3] is reported as 100 % of control, the T/C [4] is reported as 113 % of control and the T/C (dose: 200.0 mg/kg/injection, schedule: Q01DX009 (ip), vehicle: Klucel (hydroxypropylcellulose) (HPC)) is reported as 108 % of control.
In the case of `COc1c(-c2ccc3c(c2)OCO3)oc2cc(O)cc(O)c2c1=O`, the T/C (dose: 6.25 mg/kg/injection, schedule: Q01DX005 (ip), vehicle: saline with Tween-80) is reported as 100 % of control, the T/C [7] is reported as 100 % of control and the T/C [8] is reported as 104 % of control. For the same molecule, the T/C [6] was 89 % of control and the T/C (dose: 200.0 mg/kg/injection, schedule: Q01DX005 (ip), vehicle: saline with Tween-80) was 105 % of control.
